For assay [1], the target named is mouse SOX18-HMG (109aa) (Mus musculus (Mouse), UniProt P43680). Nature of the assay: Direct protein binding assay (thermal aggregation, static light scattering). Conditions: 500 μM for Sm4 and Sm14, 1.5 mM for Sm5.
Assay [2] addresses ovine COX1 (Ovis aries (Sheep), UniProt P05979). Nature of the assay: COX1 enzymatic assay. The class given is biochemical. Conditions: up to a concentration of 200 μM. On the procedure: COX inhibition activity was measured using COX1 and COX2 inhibitor screening assay kits from Cayman Chemical Company (Ref #701090 and 701080). All compounds were tested in quadruplicate at a single 200 μM concentration in 2% v/v final DMSO. Compounds were preincubated with ovine COX1 or human COX2 at 37° C. for 10 min before incubation with COX substrate arachidonic acid for another 3 min. Reactions were stopped by addition of concentrated hydrochloric acid. Prostanoid standard curve was prepared and enzyme immunoassay performed as per manufacturer's description. […] Prostanoid standards values were plotted as logit (B/B0) versus log concentrations and fitted with linear regression using GraphPad Prism version 6.0. Standard curve linear fit was used to calculate each samples concentrations.

The test system of assay [3] is SOX binding site consensus DNA. Nature of the assay: Direct DNA-binding assay (SPR), consensus DNA. Conditions: biotinylated double-strand DNA on streptavidin chip. On the procedure:
Compounds were tested at a 1% v/v DMSO in HBS-EP buffer (10 mM HEPES, 150 mM NaCl, 3 mM EDTA, 0.005% v/v polysorbate 20, pH 7.4). The same buffer supplemented with 1% v/v DMSO was used as a mobile phase. DNA minor groove binder DAPI (4′,6-diamidino-2-phenylindole), DNA intercalator and minor groove binder actinomycin D, and DNA intercalator ethidium bromide were used as positive controls. Biotinylated (one tag per probe) double strand DNA probes were prepared using a standard annealing routine (5 min at 100° C., room temperature overnight and stored at −20° C.) of single strand anti-parallel DNA Probes purchased from Geneworks and were immobilized on CM5-SA streptavidin chips as per manufacturer's recommendations. […] All sample and control cycles were performed in triplicate. DMSO calibration was performed as per manufacturer's recommendations. After each injection, an extra flow system wash was performed with 50% v/v DMSO to avoid carryover. Experiments were run on a Biacore T200 (GE Healthcare, USA), with one flow cell kept as a reference.
From a molecular viewpoint, an inhibitor of SOX18-DNA binding could act either by interacting directly with the DNA, or the protein, or at the interface between protein and DNA. Binding of small molecules directly to the DNA, even though reported for other TFs (Leung et al., 2013), has the potential for unspecific DNA binding, leading to possible genotoxicity, mutagenicity, or carcinogenicity. For this reason, we developed a direct binding assays to determine whether the active compounds interact directly with DNA or protein. A surface plasmon resonance-based method was developed to analyse the binding of small molecules to biotinylated double stranded DNA immobilized on the surface of a streptavidin chip. The method measures the rate of binding (kon), dissociation (koff) and binding constant (KD), and was used to measure the binding to two different DNA sequences: SOX binding site consensus DNA, and scrambled DNA. Intercalating agents ethidium bromide and Actinomycin D, and the minor groove-binding agent 4′,6-diamino-2-phenylindole (DAPI) were used as positive controls for unselective DNA binding.

Sequence of ovine COX1 (P05979 25-600): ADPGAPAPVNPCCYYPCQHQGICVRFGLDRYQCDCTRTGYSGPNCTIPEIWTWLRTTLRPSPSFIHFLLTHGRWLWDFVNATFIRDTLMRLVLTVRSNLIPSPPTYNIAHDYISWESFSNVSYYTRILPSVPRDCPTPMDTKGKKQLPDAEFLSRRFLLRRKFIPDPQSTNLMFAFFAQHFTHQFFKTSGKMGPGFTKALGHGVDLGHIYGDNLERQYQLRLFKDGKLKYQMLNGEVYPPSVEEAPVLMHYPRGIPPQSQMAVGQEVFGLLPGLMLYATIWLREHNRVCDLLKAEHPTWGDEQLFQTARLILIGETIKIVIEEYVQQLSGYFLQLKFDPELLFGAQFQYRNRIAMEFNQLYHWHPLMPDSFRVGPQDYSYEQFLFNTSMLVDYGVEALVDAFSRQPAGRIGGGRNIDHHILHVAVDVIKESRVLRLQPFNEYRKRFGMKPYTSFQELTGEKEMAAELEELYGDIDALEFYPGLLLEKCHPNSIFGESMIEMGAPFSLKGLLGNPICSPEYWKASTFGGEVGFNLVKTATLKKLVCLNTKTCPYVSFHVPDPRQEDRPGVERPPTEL
Sequence of mouse SOX18-HMG (109aa) (P43680 69-177): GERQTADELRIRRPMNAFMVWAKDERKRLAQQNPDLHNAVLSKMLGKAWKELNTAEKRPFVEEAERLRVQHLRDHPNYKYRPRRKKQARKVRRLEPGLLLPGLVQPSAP

Consider `O=C(O)c1c(O)cccc1COCCc1ccccc1` [Sm5], for which the “increase in Tagg” value in assay [1] was “more than 3 °C”. Moreover, in assay [2], the COX-1 inhibitory activity result was “None of the SOX18 inhibitor display any COX-1 or COX-2 inhibitory activity”. In assay [3], the “binding to consensus DNA (SPR)” value is recorded as “do not bind”.
